Calls of active or inactive are those of the source.
Assays:
[1] = blockers of HIV-1 envelope-mediated cell-cell fusion – cherry-pick, dose response (AID 652057); type: functional, cell-based
[2] = blockers of HIV-1 ZM109 envelope-driven cell-cell fusion – HeLa effector, CEM target cells, luciferase, cherry-pick, dose response (AID 652058); type: functional, cell-based;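 note: luciferase signal from HIV-1 Env mediated cell-cell fusion of effector and target cells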
[3] = HIV-1 AD8 envelope cell-cell fusion blockers – cherry-pick, dose response (AID 652062); type: functional, cell-based;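 note: luciferase signal from cell-cell fusion driven by HIV-1 clade B AD8 Env; potency is for inhibitors of fusion seen as a drop in luminescence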
[4] = off-target signal loss in HeLa-CEM21 co-culture – HeLa F-luc CTL cells, cherry-picked, counter-screen for HIV-1 Env fusion inhibitor project, dose response (AID 652040); type: functional, cell-based;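 note: potency for signal decrease marking cytotoxic or nonspecific inhibition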
[5] = luciferase reporter signal suppression in cells – H4 neuroglioma cells, luminescence, dose response (AID 1990); type: functional, cell-based
[6] = Luminescence Cell-Based Dose Response HTS to Identify Inhibitors of 5'UTR Stem-Loop Driven Prion Protein mRNA Translation in H4 Neuroglioblastoma Cells. [Related pubchem assays: 1827 (Project Summary), 1813 (Primary HTS)]; type: functional
[7] = molecular target: T1, Calpain-2 catalytic subunit (Sus scrofa, UniProt P43367); experiment: m-calpain protease blockers, concentration series – biochemical, fluorogenic peptide substrate, dose response (AID 1420); type: functional
T1 sequence (P43367 whole entry): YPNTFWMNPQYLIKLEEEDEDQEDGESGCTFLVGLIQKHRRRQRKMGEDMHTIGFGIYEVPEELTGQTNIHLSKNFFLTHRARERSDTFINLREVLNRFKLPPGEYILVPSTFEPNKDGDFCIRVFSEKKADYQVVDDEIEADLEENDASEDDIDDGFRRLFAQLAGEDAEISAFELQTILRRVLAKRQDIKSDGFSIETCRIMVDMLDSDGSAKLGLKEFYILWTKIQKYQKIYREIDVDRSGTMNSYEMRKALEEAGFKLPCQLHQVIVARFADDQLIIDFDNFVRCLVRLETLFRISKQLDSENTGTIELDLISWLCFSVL

[8] = alpha-synuclein stem-loop luciferase translation blockers – H4 neuroglioma cells, luminescence, confirmation (AID 1988); type: functional, cell-based
[9] = HEK-293T viability loss after treatment – luminescence, T-cell screen hits, cytotoxicity control for TCR NF-kB inhibitor project, dose response (AID 489026); type: functional, cell-based;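 note: cells exposed to compound about 14 hours before the viability readout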
[10] = molecular target: T2, Oxysterols receptor LXR-beta (Homo sapiens, UniProt P55055); type: functional, cell-based;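 note: agonist activity at LXR measured by a cell-based luminescence readout across a dose range, run as a counterscreen for daf-12 agonists; HEK293 cells with Gal4-LXR fusion and GAL4-driven luciferase reporter; potency for activation of Gal4-LXR reporter so compounds are agonists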
T2 sequence (P55055 whole entry): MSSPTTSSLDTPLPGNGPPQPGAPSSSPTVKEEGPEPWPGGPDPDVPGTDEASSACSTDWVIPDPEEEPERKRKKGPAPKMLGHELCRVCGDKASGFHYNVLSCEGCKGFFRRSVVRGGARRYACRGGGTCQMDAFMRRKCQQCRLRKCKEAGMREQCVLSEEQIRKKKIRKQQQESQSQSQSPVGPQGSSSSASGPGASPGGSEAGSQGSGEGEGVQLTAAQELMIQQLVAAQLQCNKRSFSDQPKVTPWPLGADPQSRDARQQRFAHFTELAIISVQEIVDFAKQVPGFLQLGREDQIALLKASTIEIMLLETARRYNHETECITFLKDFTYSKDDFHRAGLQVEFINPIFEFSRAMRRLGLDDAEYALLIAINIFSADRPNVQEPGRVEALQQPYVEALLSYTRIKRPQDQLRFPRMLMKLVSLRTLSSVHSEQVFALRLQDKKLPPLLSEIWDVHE

H4 = experiment: Luminescence Cell-Based Dose Response HTS to Identify Activators of 5'UTR Stem-Loop Driven Prion Protein mRNA Translation in H4 Neuroglioblastoma Cells. [Related pubchem assays: 1829 (Project Summary), 1814 (Primary HTS)]; type: functional; conditions: Homo sapiens
[11] = Luminescence Cell-Based Dose Response HTS to Identify Activators of Luciferase Translation or Activity in H4 […] Cells. [Related pubchem assays: 1829 (Project Summary), 1814 (Primary HTS)]; type: functional
[12] = molecular target: T3, Methionyl-tRNA synthetase, putative (Trypanosoma brucei brucei, UniProt Q38C91); type: functional, Trypanosoma brucei brucei strain 927/4 GUTat10.1
T3 sequence (Q38C91 whole entry): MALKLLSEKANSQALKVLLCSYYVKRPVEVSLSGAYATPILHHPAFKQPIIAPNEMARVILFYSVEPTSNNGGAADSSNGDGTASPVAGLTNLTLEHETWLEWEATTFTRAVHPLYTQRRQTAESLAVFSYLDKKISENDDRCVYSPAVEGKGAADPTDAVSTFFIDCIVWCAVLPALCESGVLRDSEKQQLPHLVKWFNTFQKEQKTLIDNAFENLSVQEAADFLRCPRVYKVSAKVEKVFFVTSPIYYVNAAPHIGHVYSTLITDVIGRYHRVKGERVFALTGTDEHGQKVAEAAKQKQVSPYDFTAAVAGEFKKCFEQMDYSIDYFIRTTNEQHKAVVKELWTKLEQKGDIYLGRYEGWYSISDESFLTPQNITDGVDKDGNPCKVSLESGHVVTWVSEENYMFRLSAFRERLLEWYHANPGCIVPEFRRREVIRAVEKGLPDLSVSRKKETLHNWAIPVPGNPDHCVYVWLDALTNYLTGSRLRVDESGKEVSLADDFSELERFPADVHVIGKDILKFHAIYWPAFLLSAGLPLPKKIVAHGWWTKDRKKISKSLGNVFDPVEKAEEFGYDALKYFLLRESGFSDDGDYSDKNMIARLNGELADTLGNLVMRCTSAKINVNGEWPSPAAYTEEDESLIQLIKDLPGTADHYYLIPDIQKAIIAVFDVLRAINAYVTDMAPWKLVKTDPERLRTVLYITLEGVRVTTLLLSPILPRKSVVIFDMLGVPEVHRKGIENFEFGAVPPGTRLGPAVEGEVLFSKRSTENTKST

[13] = Counterscreen for inhibitors of Trypanosoma brucei methionyl tRNA synthetase (MetRS): Luminescence-based cell-based high throughput dose response assay to identify compounds that are cytotoxic to Jurkat human T lymphocyte cells.; type: functional
[14] = molecular target: T3, Methionyl-tRNA synthetase, putative; type: functional, Trypanosoma brucei brucei strain 927/4 GUTat10.1; remark: listed apart in the source
[15] = blockers of CRF-binding protein–CRF-R2 complex – cell-based, uHTS hits, 384-well, dose response (AID 651639); type: functional, Homo sapiens; conditions: read-out: IC50_Mean
[16] = molecular target: T4, Corticotropin-releasing factor receptor 2/Corticotropin-releasing factor-binding protein (Homo sapiens, UniProt P24387+Q13324); experiment: Dose Response confirmation of uHTS hits for small molecule antagonists of the CRF-binding protein and CRF-R2 receptor complex.; type: functional; conditions: read-out: IC50_Mean
T4 sequence (Q13324 whole entry): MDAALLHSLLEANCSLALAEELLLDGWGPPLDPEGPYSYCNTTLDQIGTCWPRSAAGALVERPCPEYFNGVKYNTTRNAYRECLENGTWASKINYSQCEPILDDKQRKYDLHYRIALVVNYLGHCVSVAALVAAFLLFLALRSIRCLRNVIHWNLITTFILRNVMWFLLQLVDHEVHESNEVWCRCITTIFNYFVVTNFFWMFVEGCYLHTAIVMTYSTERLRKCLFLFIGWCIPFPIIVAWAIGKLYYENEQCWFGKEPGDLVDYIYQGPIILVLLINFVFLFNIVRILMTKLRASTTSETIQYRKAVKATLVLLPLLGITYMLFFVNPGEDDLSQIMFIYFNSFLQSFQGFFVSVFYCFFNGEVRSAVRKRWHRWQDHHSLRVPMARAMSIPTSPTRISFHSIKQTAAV
T4 sequence (P24387 whole entry): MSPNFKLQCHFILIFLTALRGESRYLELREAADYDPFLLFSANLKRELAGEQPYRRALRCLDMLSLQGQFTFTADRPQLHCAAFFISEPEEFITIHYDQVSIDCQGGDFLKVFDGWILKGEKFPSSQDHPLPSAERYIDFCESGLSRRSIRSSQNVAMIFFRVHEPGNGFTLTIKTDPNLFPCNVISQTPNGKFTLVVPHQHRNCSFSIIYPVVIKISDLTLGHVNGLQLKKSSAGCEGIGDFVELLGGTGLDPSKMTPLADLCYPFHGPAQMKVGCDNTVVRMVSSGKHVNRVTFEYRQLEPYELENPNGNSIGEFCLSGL

[17] = molecular target: T4, Corticotropin-releasing factor receptor 2/Corticotropin-releasing factor-binding protein; experiment: activators of CRF receptor 2 with binding protein – uHTS hits, confirmation (AID 602473); type: functional; conditions: read-out: EC50_Mean
[18] = fluconazole-exposed Candida albicans growth modulators – fluorescence, retest, confirmation (AID 2467); type: functional, cell-based
[19] = NIH-3T3 fibroblast cytotoxicity, dose response, cytotoxicity control, cell-based, fluorescence, Alamar Blue, secondary assay (AID 2327); type: functional;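 note: NIH-3T3 mouse fibroblasts cultured with fluconazole at 8 µg/mL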
[20] = molecular target: T5, Microphthalmia-associated transcription factor (Homo sapiens, UniProt O75030); experiment: reducers of TRPM1 reporter luminescence, concentration series – cell-based, SK-MEL-5, cherry-picked, set 3, MITF inhibitor project, dose response (AID 493073); type: functional;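 note: SK-MEL-5 melanoma cells with luciferase driven by the MITF target TRPM1 promoter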
T5 sequence (O75030 whole entry): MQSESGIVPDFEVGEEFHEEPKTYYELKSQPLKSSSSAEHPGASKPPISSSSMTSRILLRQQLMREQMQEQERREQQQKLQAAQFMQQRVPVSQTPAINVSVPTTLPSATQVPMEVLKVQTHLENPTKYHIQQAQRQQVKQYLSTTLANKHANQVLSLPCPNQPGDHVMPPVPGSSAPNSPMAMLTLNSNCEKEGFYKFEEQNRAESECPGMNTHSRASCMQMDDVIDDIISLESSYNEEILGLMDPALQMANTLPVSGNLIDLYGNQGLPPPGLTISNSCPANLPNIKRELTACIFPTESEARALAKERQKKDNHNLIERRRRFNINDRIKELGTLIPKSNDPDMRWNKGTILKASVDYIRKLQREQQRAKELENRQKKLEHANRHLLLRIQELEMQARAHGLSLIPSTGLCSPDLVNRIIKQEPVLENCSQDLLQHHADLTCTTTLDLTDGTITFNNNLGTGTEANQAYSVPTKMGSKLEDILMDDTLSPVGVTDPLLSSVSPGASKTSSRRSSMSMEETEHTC

Cc1ccc(C(c2nnnn2CS(=O)(=O)c2ccc(C)cc2)N2CCCC2)cc1 (stereo not given)
AC50 [1]: 3.22 µM (active)
AC50 [2]: 3.55 µM (active)
AC50 [3]: 2.35 µM (active)
AC50 [4]: 3.97 µM (active)

O=C(COc1ccc(C(=O)c2ccccc2)cc1)NCc1ccc(F)cc1
EC50 [5]: > 120 µM (not active)
EC50 [6]: 10 µM (active)
IC50 [7]: > 50 µM (not active)
EC50 [8]: 7.25 µM (active)
IC50 [9]: > 80 µM (inactive)

N=C1c2ccccc2CN1CC(=O)c1ccccc1
EC50 [10]: > 67.6 µM (inactive)
EC50 (H4): 8 µM (active)
EC50 [11]: 10.6 µM (active)

O=C(NCC(O)COc1ccc([N+](=O)[O-])cc1)Nc1ccccc1 (stereo not given)
IC50 [12]: 9.32 µM (active)
IC50 [13]: 83.4 µM (inactive)
IC50 [14]: 15.6 µM (inactive)

Cc1nc2ccccc2n1CCOc1ccc([N+](=O)[O-])cc1
IC50 [15]: 0.972 µM (active)
IC50 [16]: < 0.368 µM (active)
EC50 [17]: > 53 µM (inactive)

Cc1ccc(-c2cc(-c3ccc(C)cc3)[n+](C)o2)cc1.[O-][Cl+3]([O-])([O-])[O-]
EC50 [18]: > 38 µM (not active)
EC50 [19]: > 160 µM (inactive)
AC50 [20]: 8.24 µM (active)

COCCNC(=O)/C(C#N)=C/c1cc(C)n(C2CCCCC2)c1C
EC50 [10]: > 67.5 µM (inactive)

Cc1ccc(C)c(S(=O)(=O)C(C#N)c2nc3ccccc3nc2N2CCOCC2)c1 (stereo not given)
IC50 [15]: > 20 µM (inactive)
IC50 [16]: 39.8 µM (active)
EC50 [17]: 35.8 µM (active)

COc1ccccc1CN(C)C(=O)C(c1ccccc1)c1ccccc1
IC50 [15]: > 20 µM (inactive)
IC50 [16]: 8.1 µM (active)
EC50 [17]: > 53 µM (inactive)

O=C(NCC(=O)N1CCN(c2ncccn2)CC1)c1ccccc1OC(F)F
AC50 [1]: 2.79 µM (active)
AC50 [2]: 2.86 µM (active)
AC50 [3]: 13.1 µM (active)
AC50 [4]: 3.72 µM (active)

COc1ccccc1-c1c[nH]c(C(O)c2cc(Cl)cc(Cl)c2)n1 (stereo not given)
IC50 [12]: 2.38 µM (active)
IC50 [13]: 83.3 µM (inactive)
IC50 [14]: 3.26 µM (active)

C[C@H]1CN([C@@H](C)CO)C(=O)c2c(c3ccccc3n2C)-c2ccccc2CO[C@H]1CN(C)C(=O)Nc1cccc(F)c1
AC50 [1]: < 0.26 µM (active)
AC50 [2]: < 0.26 µM (active)
AC50 [3]: 2.88 µM (active)
AC50 [4]: 0.362 µM (active)

O=C(CCC(=O)Nc1cccc([N+](=O)[O-])c1)N/N=C/c1cccs1
IC50 [12]: 5.26 µM (active)
IC50 [13]: 83.3 µM (inactive)
IC50 [14]: 8.34 µM (active)

C/C(=N\c1ccccc1)c1sc2ccccc2c1O
EC50 [10]: > 67.6 µM (inactive)
EC50 (H4): 0.153 µM (active)
EC50 [11]: 2.22 µM (active)

— ChEMBL document CHEMBL1201862, “PubChem BioAssay data set” (2004)
